Where two headings read alike, the source gives them in different places.
Biological target: T1, F508delCFTR (Homo sapiens, UniProt P13569, DEL508-508)
T1 construct: expressed in transfected cells; host or cells: CFBE41o- human lung-derived epithelial cells (CFBE4lo-F508delCFTR-HRP), doxycycline-inducible
Assay: Cell Surface Expression-Horse Radish Peroxidase (CSE-HRP) Assay;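 on Maximum % activity (with co-corrector): co-corrector and positive control are both the same reference corrector at 2 µM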;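 on Maximum % activity (without co-corrector): percent of the 2 µM on-plate positive control corrector response above DMSO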
Type: cell-based
Conditions: for Emax: read-out: Maximum % activity (without co-corrector)

[1] = test compound without co-corrector, read-out: EC50 (without co-corrector)
[2] = with co-corrector (2 μM of 3-[(2R,4R)-4-({[1-(2,2-difluoro-1,3-benzodioxol-5-yl)cyclopropyl]carbonyl}amino)-7-methoxy-3,4-dihydro-2H-chromen-2-yl]benzoic acid), read-out: EC50 (with co-corrector)
[3] = test compound without co-corrector, maximum at any tested concentration, normalized to on-plate positive control
[4] = with co-corrector (2 μM of 3-[(2R,4R)-4-({[1-(2,2-difluoro-1,3-benzodioxol-5-yl)cyclopropyl]carbonyl}amino)-7-methoxy-3,4-dihydro-2H-chromen-2-yl]benzoic acid), maximum at any tested concentration, normalized to on-plate positive control

T1 sequence (P13569 with tags, fused parts or gaps DEL508-508): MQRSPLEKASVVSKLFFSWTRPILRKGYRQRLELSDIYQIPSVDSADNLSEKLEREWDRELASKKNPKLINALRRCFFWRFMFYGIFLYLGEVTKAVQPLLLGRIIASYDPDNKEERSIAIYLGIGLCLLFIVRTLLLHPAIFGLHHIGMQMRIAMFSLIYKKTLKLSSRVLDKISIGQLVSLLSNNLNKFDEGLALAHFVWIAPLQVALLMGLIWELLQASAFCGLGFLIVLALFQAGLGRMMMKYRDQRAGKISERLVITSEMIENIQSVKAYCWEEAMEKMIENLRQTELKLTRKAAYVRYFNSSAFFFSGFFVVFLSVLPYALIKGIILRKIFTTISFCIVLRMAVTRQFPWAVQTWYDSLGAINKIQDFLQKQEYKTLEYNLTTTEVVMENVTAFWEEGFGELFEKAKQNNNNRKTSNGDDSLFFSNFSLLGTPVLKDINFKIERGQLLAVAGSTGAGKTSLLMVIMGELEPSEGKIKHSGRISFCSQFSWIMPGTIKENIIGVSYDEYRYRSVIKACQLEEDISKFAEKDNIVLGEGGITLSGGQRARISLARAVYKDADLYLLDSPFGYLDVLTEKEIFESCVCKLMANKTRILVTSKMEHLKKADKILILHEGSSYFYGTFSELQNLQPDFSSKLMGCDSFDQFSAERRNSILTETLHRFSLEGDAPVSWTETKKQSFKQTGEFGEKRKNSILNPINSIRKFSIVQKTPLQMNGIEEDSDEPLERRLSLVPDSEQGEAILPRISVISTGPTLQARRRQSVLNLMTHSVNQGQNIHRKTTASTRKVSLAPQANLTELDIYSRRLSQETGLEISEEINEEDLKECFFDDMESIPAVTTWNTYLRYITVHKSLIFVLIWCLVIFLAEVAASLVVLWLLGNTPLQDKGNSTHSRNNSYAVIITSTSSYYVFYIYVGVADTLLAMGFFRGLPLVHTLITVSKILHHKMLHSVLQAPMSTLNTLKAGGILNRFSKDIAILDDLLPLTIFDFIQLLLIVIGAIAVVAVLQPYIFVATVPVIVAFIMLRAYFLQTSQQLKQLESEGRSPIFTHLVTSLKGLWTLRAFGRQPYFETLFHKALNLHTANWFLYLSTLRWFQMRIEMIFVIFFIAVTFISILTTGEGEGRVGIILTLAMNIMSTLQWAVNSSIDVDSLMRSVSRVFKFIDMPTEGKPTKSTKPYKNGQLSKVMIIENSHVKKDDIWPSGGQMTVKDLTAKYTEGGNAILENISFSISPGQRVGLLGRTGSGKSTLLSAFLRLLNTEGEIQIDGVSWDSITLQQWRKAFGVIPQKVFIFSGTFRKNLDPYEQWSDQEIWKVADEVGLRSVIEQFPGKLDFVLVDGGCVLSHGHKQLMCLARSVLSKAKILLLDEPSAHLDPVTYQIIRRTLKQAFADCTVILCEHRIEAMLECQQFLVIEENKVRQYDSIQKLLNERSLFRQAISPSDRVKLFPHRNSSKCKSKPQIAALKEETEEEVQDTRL

Row | SMILES | EC50 [1] [nM] | EC50 [2] [nM] | Emax [3] [%] | Maximum % activity (with co-corrector) [4] | Maximum % activity (without co-corrector) [3]
1 | COc1ccc([Si](C)(C)C)cc1CN[C@H]1[C@H](C(C)(C)C)[C@@H](C(=O)O)N(C(=O)[C@H]2CCCC(F)(F)C2)[C@H]1c1ccccc1 [II-441] | < 1000 | < 1000 |  |  | 
2 | COc1ccc(C(C)(C)C)cc1CN[C@H]1[C@H](C(C)(C)C)[C@@H](C(=O)O)N(C(=O)C2CC23CCOCC3)[C@H]1c1ccccc1 (stereo partly drawn) [II-442] | 1000 to 10000 | 1000 to 10000 | < 100 | +++ (≥350) | 
3 | COc1ccc(C(C)(C)C)cc1CN[C@H]1[C@H](C(C)(C)C)[C@@H](C(=O)O)N(C(=O)C2CCO2)[C@H]1c1ccccc1 (stereo partly drawn) [II-443] | 1000 to 10000 | 1000 to 10000 | > 200 | +++ (≥350) | 
4 | COc1ccc(C(C)(C)C)cc1CN[C@H]1[C@H](C(C)(C)C)[C@@H](C(=O)O)N(C(=O)c2cc(C)n(C)n2)[C@H]1c1ccccc1 [II-445] | 1000 to 10000 | 1000 to 10000 | 100 to 200 | +++ (≥350) | 
5 | COc1ncc(C(F)(F)F)cc1CN[C@H]1[C@H](C(C)(C)C)[C@@H](C(=O)O)N(C(=O)C2Cc3cccc(C)c3O2)[C@H]1c1ccccc1 (stereo partly drawn) [II-446] | 1000 to 10000 | 1000 to 10000 | < 100 | ++ (≥150 and <350) | 
6 | COc1ccc(-c2ccccc2)cc1CN[C@H]1[C@H](C(C)(C)C)[C@@H](C(=O)O)N(C(=O)[C@H]2CCCCO2)[C@H]1c1cccnc1N(C)C [II-447] | 1000 to 10000 | 1000 to 10000 | 100 to 200 | +++ (≥350) | 
7 | COc1ccc(-c2ccccc2)cc1CN[C@H]1[C@H](C(C)(C)C)[C@@H](C(=O)O)N(C(=O)[C@@H]2CCCCO2)[C@H]1c1cccnc1N(C)C [II-450] | 1000 to 10000 | < 1000 | > 200 | +++ (≥350) | 
8 | COc1ccc(C(C)(C)C)cc1CN[C@H]1[C@H](C(C)(C)C)[C@@H](C(=O)O)N(C(=O)[C@H]2CCCCO2)[C@H]1c1ccccc1 [II-451] | 1000 to 10000 | 1000 to 10000 | > 200 | +++ (≥350) | 
9 | COc1ccc(C(C)(C)C)cc1CN[C@H]1[C@H](C(C)(C)C)[C@@H](C(=O)O)N(C(=O)C(C)C2CCCCO2)[C@H]1c1ccccc1 (stereo partly drawn) [II-457] | 1000 to 10000 | 1000 to 10000 | > 200 | +++ (≥350) | 
10 | COc1ccc(C(C)(C)C)cc1CN[C@H]1[C@H](C(C)(C)C)[C@@H](C(=O)O)N(C(=O)[C@@H]2CCCCO2)[C@H]1c1ccccc1F [II-460] | 1000 to 10000 | < 1000 | > 200 | +++ (≥350) | 
11 | COc1ncc(C(F)(F)F)cc1N[C@H]1[C@H](C(C)(C)C)[C@@H](C(=O)O)N(C(=O)C2CCCCC2)[C@H]1c1cccnc1N(C)C [II-461] | 1000 to 10000 | 1000 to 10000 | < 100 | ++ (≥150 and <350) | 
12 | COc1ccc(C2(C)CCC2)cc1CN[C@H]1[C@H](C(C)(C)C)[C@@H](C(=O)O)N(C(=O)C2CCCCC2)[C@H]1c1ccccc1 [II-462] | < 1000 | < 1000 | > 200 | +++ (≥350) | 
13 | COc1ccc(C(C)(C)C)cc1CN[C@H]1[C@H](C(C)(C)C)[C@@H](C(=O)O)N(C(=O)C2CCC(O)(C(F)(F)F)CC2)[C@H]1c1cccnc1N(C)C (stereo partly drawn) [II-463] | 1000 to 10000 | 1000 to 10000 | 100 to 200 | +++ (≥350) | 
14 | COc1ccc(C(C)(C)C)cc1CN[C@H]1[C@H](C(C)(C)C)[C@@H](C(=O)O)N(C(=O)c2ccc(Oc3ccccc3)cc2)[C@H]1c1cccnc1N(C)C [II-464] | < 1000 | < 1000 | 100 to 200 | +++ (≥350) | 
15 | COc1ccc(C(C)(C)C)cc1CN[C@H]1[C@H](C(C)(C)C)[C@@H](C(=O)O)N(C(=O)c2ccc(OC3CCOCC3)cc2)[C@H]1c1cccnc1N(C)C [II-465] | 1000 to 10000 | < 1000 | > 200 | +++ (≥350) | 
16 | COc1ccc(C(C)(C)C)cc1CN[C@H]1[C@H](C(C)(C)C)[C@@H](C(=O)O)N(C(=O)c2ccc(Oc3ccccn3)cc2)[C@H]1c1cccnc1N(C)C [II-466] | < 1000 | < 1000 | > 200 | +++ (≥350) | 
17 | COc1ccc(C(C)(C)C)cc1CN[C@H]1[C@H](C(C)(C)C)[C@@H](C(=O)O)N(C(=O)c2ccc(OC(F)(F)F)cc2)[C@H]1c1cccnc1N(C)C [II-467] | < 1000 | < 1000 | 100 to 200 | +++ (≥350) | 
18 | COc1ccc(C(C)(C)C)cc1CN[C@H]1[C@H](C(C)(C)C)[C@@H](C(=O)O)N(C(=O)C2CCC(F)(F)CC2)[C@H]1c1cccnc1N(C)C [II-468] | 1000 to 10000 | 1000 to 10000 | 100 to 200 | +++ (≥350) | 
19 | COc1ccc(C(C)(C)C)cc1CN[C@H]1[C@H](C(C)(C)C)[C@@H](C(=O)O)N(C(=O)C2CC(C)CC(C)C2)[C@H]1c1cccnc1N(C)C (stereo partly drawn) [II-469] | 1000 to 10000 | 1000 to 10000 | 100 to 200 | +++ (≥350) | 
20 | COc1cc(C(F)(F)F)ccc1CN[C@H]1[C@H](C23CC(C2)C3)[C@@H](C(=O)O)N(C(=O)C2CCCCC2)[C@H]1c1ccccc1 [II-470] | 1000 to 10000 | < 1000 | 100 to 200 | +++ (≥350) | 
21 | COc1ncc(C2CCC2)cc1CN[C@H]1[C@H](C(C)(C)C)[C@@H](C(=O)O)N(C(=O)C2COc3ccccc3O2)[C@H]1c1ccccc1 (stereo partly drawn) [II-474] | 1000 to 10000 | 1000 to 10000 | 100 to 200 | +++ (≥350) | 
22 | COc1ncc(C2CCC2)cc1CN[C@H]1[C@H](C(C)(C)C)[C@@H](C(=O)O)N(C(=O)c2ccc3c(c2)OCCO3)[C@H]1c1ccccc1 [II-475] | 1000 to 10000 | 1000 to 10000 | < 100 | ++ (≥150 and <350) | 
23 | COc1ncc(C2CCC2)cc1CN[C@H]1[C@H](C(C)(C)C)[C@@H](C(=O)O)N(C(=O)C2CCc3cc(F)ccc3O2)[C@H]1c1ccccc1 (stereo partly drawn) [II-476] | 1000 to 10000 | 1000 to 10000 | 100 to 200 | +++ (≥350) | 
24 | COc1ncc(C(F)(F)F)cc1CN[C@H]1[C@H](C(C)(C)C)[C@@H](C(=O)O)N(C(=O)[C@H]2CCCCO2)[C@H]1c1cccnc1N(C)C [II-478] | 1000 to 10000 | 1000 to 10000 | < 100 | ++ (≥150 and <350) | 
25 | COc1ccc(C23CC(C2)C3)cc1CN[C@H]1[C@H](C(C)(C)C)[C@@H](C(=O)O)N(C(=O)[C@@H]2CCC[C@@H](OC)C2)[C@H]1c1ccccc1 [II-479] | 1000 to 10000 | 1000 to 10000 | > 200 | +++ (≥350) | 
26 | COc1ccc(C(C)(C)C)cc1CN[C@H]1[C@H](C(C)(C)C)[C@@H](C(=O)O)N(C(=O)C2CCc3cc(F)ccc3O2)[C@H]1c1cccnc1N(C)C (stereo partly drawn) [II-482] | 1000 to 10000 | 1000 to 10000 |  | +++ (≥350) | ++ (≥100 and <200)

From patent US20180099931A1 (AbbVie S.à.r.l., priority 2016, published 2018)
